Experimental data as given in patent publication US11999806B2, “Broad-spectrum polypeptide against enterovirus and application thereof” (WUHAN INSTITUTE OF VIROLOGY, CHINESE ACADEMY OF SCIENCES, priority 2018, dated 2024).
Several values for one entry are separate records, joined by “and”; a condition that tells them apart may be missing. Equal entries are not always repeated. Where two headings read alike, the source gives them in different places. Non-standard residues stand in square brackets, D forms with d. Residues, ends and D or L forms follow the SMILES beside them. No end group written: not given here.

Key:
CVA16 = format: cell-based, Coxsackievirus A16; conditions: CCK-8; for Virus inhibition rate (%): CVA16, RD cells, 24 h; for IC50: read-out: IC50 against CVA16
EV71 = assay: Anti-EV71 efficiency in RD cells, viral RNA by qRT-PCR; format: cell-based, enterovirus 71; conditions: for Relative viral RNA amount (%): 24 h, control infected without polypeptide
Experimental: • (1) RD cells were plated in five 100 mm dishes. • (2) After the cells reached 70%-80% confluence, the MEM medium containing 10% serum was replaced with a MEM medium containing 2% serum. […] When the changes were obvious, samples were collected as follows. • (4) The supernatant in the 100 mm dish was transferred into a 15 ml centrifuge tube, and centrifuged at 500 g for 5 min. • (5) The supernatant was transferred into a new 15 ml centrifuge tube, and filtered through 0.22 μm filter membrane with a 50 ml syringe. • (6) RNA was extracted from 100 μl of the supernatant obtained in step (5) and subjected to one step qRT-PCR to measure the virus titer, and the previously extracted virus RNA with known titer was handled together as a control. 3. Measure Antiviral Efficiency of Polypeptide in RD Cells. • (1) Different cells were plated in 24-well cell plates. • (2) After the cells reached 70%-80% confluence, the MEM medium containing 10% serum was replaced with a MEM medium containing 2% serum (0.5 ml/well), and 5 μl of 10^6 PFU/mL EV71 viruses per well were added. • (3) After 1 h, different polypeptides were added at a final concentration of 0.01 μM, 0.1 μM, 1 μM, 10 μM, and 50 μM, respectively. • (4) Samples were collected 24 hours after virus infection, and RNA was extracted with total RNA extraction kit as follows. • (5) The supernatant in the wells was discarded, then 350 μl of TRK Lysis Buffer was added to each well and the plate was shaken on the shaker for 5 minutes. • (6) 350 μl of 70% ethanol (DEPC-treated) was added to the well and the plate was shaken on the shaker for 5 minutes. • (7) The mixture in the well was transferred to a RNA extraction column and centrifuged at 12,000 g for 1 min. • (8) The solution collected in the recovery tube was added back to the column and centrifuged at 12,000 g for 1 min. • (9) RNA washing buffer 1 was added to the column and centrifuged at 12,000 g for 30 s. • (10) RNA washing buffer 2 was added to the column and centrifuged at 12,000 g for 1 min. • (11) Step (10) was repeated once. • (12) The column was centrifuged at 12000 g for 2 min to completely remove residual RNA washing buffer. • (13) 50 μl DEPC-treated H2O was added to the column and centrifuge at 12,000 g for 2 min. • (14) 2 μl RNA sample was used according to one step qRT-PCR kit for fluorescence quantification experiment.
RD cells added with R8 penetrating peptide (sequence: RRRRRRRR) were used as a negative control.
RD cells were used to test the antiviral effect of polypeptide P2. EV71 (MOI=0.1) was added to RD cells at 80% confluence. After 1 hour of infection, polypeptide P2 was added at concentrations of 0.01 μM, 0.1 μM, 1 μM, 10 μM, and 50 μM, respectively. The samples were collected 24 hours later, and the total RNA was extracted. The level of viral genomic RNA was detected by qRT-PCR. The cells infected with the same type virus and added with penetrating peptide R8 were used as a control group.
• (1) RD cells were plated in five 100 mm dishes. • (2) After the cells reached 70%-80% confluence, the MEM medium containing 10% serum was replaced with a MEM medium containing 2% serum. […] When the changes were obvious, samples were collected as follows. • (4) The supernatant in the 100 mm dish was transferred into a 15 ml centrifuge tube, and centrifuged at 500 g for 5 min. • (5) The supernatant was transferred into a new 15 ml centrifuge tube, and filtered through 0.22 μm filter membrane with a 50 ml syringe. • (6) RNA was extracted from 100 μl of the supernatant obtained in step (5) and subjected to one step qRT-PCR to measure the virus titer, and the previously extracted virus RNA with known titer was handled together as a control. 3. […]

Row | Molecule | IC50 (CVA16; RD cells) [nM] | Relative viral RNA amount (%) (EV71; EV71 MOI=0.1, 0.01 μM) | Relative viral RNA amount (%) (EV71; EV71 MOI=0.1, 0.1 μM) | Relative viral RNA amount (%) (EV71; EV71 MOI=0.1, 1 μM) | other results
1 | CC(=O)N[C@H](CCCNC(=N)N)C(=O)N[C@H](CS)C(=O)N[C@H](Cc1ccc(O)cc1)C(=O)N[C@H](CCC(N)=O)C(=O)N[C@H](CCCNC(=N)N)C(=O)N[C@@H](C(=O)N[C@H](CCC(=O)O)C(=O)N[C@H](CCC(=O)O)C(=O)N1CCC[C@@H]1C(=O)N1CCC[C@@H]1C(=O)N[C@H](CCCNC(=N)N)C(=O)N[C@H](CCCNC(=N)N)C(=O)N[C@H](CCCNC(=N)N)C(=O)N[C@H](CCC(N)=O)C(=O)N[C@H](CCCNC(=N)N)C(=O)N[C@H](CCCNC(=N)N)C(=O)N[C@H](CCCCN)C(=O)N[C@H](CCCCN)C(=O)N[C@H](CCCNC(=N)N)C(=O)NCC(=O)N[C@H](Cc1ccc(O)cc1)C(N)=O)C(C)C [ER-DRI] (Ac-[dR][dC][dY][dQ][dR][dV][dE][dE][dP][dP][dR][dR][dR][dQ][dR][dR][dK][dK][dR]G[dY]-NH2) | 856 |  |  |  | Virus inhibition rate (%) (CVA16; 0.15625 μM): 7.885% and 3.667% and 8.802%; Virus inhibition rate (%) (CVA16; 0.3125 μM): 12.1% and 11.19% and 21.45%; Virus inhibition rate (%) (CVA16; 0.625 μM): 15.77% and 13.75% and 27.14%; Virus inhibition rate (%) (CVA16; 1.25 μM): 59.05% and 58.86% and 50.79%; Virus inhibition rate (%) (CVA16; 2.5 μM): 93.52% and 84.17% and 77.93%; Virus inhibition rate (%) (CVA16; 5 μM): 104.7% and 107.3% and 106.2%; effect on CVA16, in words (CVA16; RD cells): can significantly inhibit CVA16
2 | CC[C@@H](C)[C@@H](NC(=O)[C@H]1CCCN1C(C)=O)C(=O)N[C@@H](C(=O)N[C@H](Cc1c[nH]c2ccccc12)C(=O)NCC(=O)N[C@H](CCC(N)=O)C(=O)N[C@H](CCC(=O)O)C(=O)N[C@H](CCCNC(=N)N)C(=O)N[C@H](CS)C(=O)N[C@H](Cc1ccc(O)cc1)C(=O)N[C@H](CCC(N)=O)C(=O)N[C@H](CCCNC(=N)N)C(=O)N[C@@H](C(=O)N[C@H](CCC(=O)O)C(=O)N[C@H](CCC(=O)O)C(=O)N1CCC[C@@H]1C(=O)N1CCC[C@@H]1C(=O)N[C@H](CCCNC(=N)N)C(=O)N[C@H](CCCNC(=N)N)C(=O)N[C@H](CCCNC(=N)N)C(=O)N[C@H](CCC(N)=O)C(=O)N[C@H](CCCNC(=N)N)C(=O)N[C@H](CCCNC(=N)N)C(=O)N[C@H](CCCCN)C(=O)N[C@H](CCCCN)C(=O)N[C@H](CCCNC(=N)N)C(=O)NCC(=O)N[C@H](Cc1ccc(O)cc1)C(N)=O)C(C)C)[C@H](C)CC [3A-EP-DRI] |  | 75.93% and 73.36% and 72.89% | 72.52% and 70.59% and 61.38% | 100.5% and 95.84% and 90.71% | 
3 | CCCCCCCCCCCCCCCC(=O)NCCCC[C@H](NC(=O)CCOCCOCCOCCOCCNC(=O)[C@H](CCCCN)NC(=O)[C@H](C)NC(=O)[C@@H]1CCCN1C(=O)[C@@H](NC(=O)[C@@H](NC(=O)[C@H](Cc1c[nH]c2ccccc12)NC(=O)CNC(=O)[C@H](CCC(N)=O)NC(=O)[C@H](CCC(=O)O)NC(=O)[C@H](CCCNC(=N)N)NC(=O)[C@H](CS)NC(=O)[C@H](Cc1ccc(O)cc1)NC(=O)[C@H](CCC(N)=O)NC(=O)[C@H](CCCNC(=N)N)NC(=O)[C@@H](NC(=O)[C@H](CCC(=O)O)NC(=O)[C@@H](N)CCC(=O)O)C(C)C)[C@@H](C)CC)[C@@H](C)CC)C(=O)O [3A-EP-PEG4-PA] |  | 72.5% and 68.12% and 59.1% | 69.96% and 68.69% and 67.81% | 107.1% and 89.26% and 75.24% | 
4 | RRRRRRRREEVRQYCRDQ [P2] | 1530 |  |  |  | IC50 (EV71; read-out: IC50 against EV71 by qRT-PCR): 6370 nM
5 | YGRKKRRQRRRGSGEEVRQYCR [ER] | 3210 |  |  |  | 
